How the values were obtained:
[1] = molecular target: T1, Endothelin receptor type B (Homo sapiens, UniProt P24530); assay: Compound was tested for binding affinity against Endothelin B receptor
T1 sequence (P24530 whole entry): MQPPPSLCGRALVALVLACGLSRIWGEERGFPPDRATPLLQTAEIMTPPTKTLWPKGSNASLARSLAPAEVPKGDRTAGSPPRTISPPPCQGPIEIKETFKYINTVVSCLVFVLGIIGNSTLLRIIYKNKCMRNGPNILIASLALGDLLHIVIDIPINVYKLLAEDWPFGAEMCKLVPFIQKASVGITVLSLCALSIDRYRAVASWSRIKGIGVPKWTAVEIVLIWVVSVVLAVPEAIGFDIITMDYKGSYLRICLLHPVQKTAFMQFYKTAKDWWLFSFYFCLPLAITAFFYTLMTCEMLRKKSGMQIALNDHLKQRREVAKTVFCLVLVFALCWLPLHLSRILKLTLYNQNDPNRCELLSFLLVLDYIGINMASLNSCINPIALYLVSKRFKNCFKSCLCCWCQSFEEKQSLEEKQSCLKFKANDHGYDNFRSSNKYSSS

Endothelin-1 receptor = molecular target: T2, Endothelin-1 receptor (Homo sapiens, UniProt P25101); assay: Compound was tested for binding affinity against Endothelin A receptor
T2 sequence (P25101 whole entry): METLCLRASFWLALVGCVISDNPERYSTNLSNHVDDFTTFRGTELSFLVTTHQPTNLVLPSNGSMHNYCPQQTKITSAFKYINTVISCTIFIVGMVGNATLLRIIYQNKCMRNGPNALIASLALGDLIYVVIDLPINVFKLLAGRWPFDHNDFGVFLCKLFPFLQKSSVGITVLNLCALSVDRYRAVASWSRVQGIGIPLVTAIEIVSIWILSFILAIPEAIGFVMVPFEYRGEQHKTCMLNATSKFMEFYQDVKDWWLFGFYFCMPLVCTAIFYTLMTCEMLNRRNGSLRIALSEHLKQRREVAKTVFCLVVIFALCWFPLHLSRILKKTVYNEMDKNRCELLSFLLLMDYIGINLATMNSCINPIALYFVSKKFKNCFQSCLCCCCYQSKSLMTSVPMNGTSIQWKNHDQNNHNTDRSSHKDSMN

Row | IC50 [1] | IC50 (Endothelin-1 receptor) | SMILES
1 | > 100 µM | 2.75 µM | Cc1noc(NS(=O)(=O)c2ccsc2)c1Br
2 | 74.1 µM | 0.603 µM | Cc1noc(NS(=O)(=O)c2ccsc2-c2ccccc2)c1Br
3 | > 100 µM | 0.306 µM | Cc1ccccc1-c1ccsc1S(=O)(=O)Nc1onc(C)c1Br
4 | 2.45 µM | 0.115 µM | Cc1cc(CCC(C)C)ccc1-c1ccsc1S(=O)(=O)Nc1onc(C)c1Br
5 |  | 0.182 µM | Cc1noc(NS(=O)(=O)c2sccc2-c2ccc(CCC(C)C)cc2)c1Br
6 | 2.91 µM | 0.0429 µM | CCCc1ccc(-c2ccsc2S(=O)(=O)Nc2onc(C)c2Br)c(C)c1
7 | 2.9 µM |  | Cc1noc(NS(=O)(=O)c2sccc2-c2ccc(CC(C)C)cc2)c1Br
8 | 13.5 µM | 3.39 µM | Cc1noc(NS(=O)(=O)c2cc(-c3ccccc3)cs2)c1Br
9 | 56.3 µM | 1.32 µM | COc1cccc(-c2ccsc2S(=O)(=O)Nc2onc(C)c2Br)c1
10 | 8.16 µM |  | CCCc1ccc(-c2ccsc2S(=O)(=O)Nc2onc(C)c2Br)cc1
11 | 1.51 µM | 0.0479 µM | Cc1cc(CC(C)C)ccc1-c1ccsc1S(=O)(=O)Nc1onc(C)c1Br
12 | > 100 µM | 2.51 µM | Cc1noc(NS(=O)(=O)c2ccccc2)c1Br
13 | > 100 µM | 0.0162 µM | Cc1noc(NS(=O)(=O)c2ccccc2-c2ccccc2)c1Br
14 | 64.4 µM | 0.819 µM | Cc1noc(NS(=O)(=O)c2sccc2-c2ccccc2)c1Br
15 | 35.5 µM | 1.45 µM | Cc1noc(NS(=O)(=O)c2sccc2Oc2ccccc2)c1Br
16 | 62.1 µM | 0.334 µM | COc1ccc(-c2ccsc2S(=O)(=O)Nc2onc(C)c2Br)cc1
17 | 95.5 µM | 0.315 µM | Cc1ccc(-c2ccsc2S(=O)(=O)Nc2onc(C)c2Br)cc1
18 | > 100 µM | 1.91 µM | Cc1noc(NS(=O)(=O)c2cccs2)c1Br
19 | 39.8 µM | 2.6 µM | Cc1noc(NS(=O)(=O)c2sccc2Cc2ccccc2)c1Br

Reference: ChEMBL document CHEMBL1128922, “Thiophenesulfonamides as endothelin receptor antagonists” (Bioorg Med Chem Lett, 1996)
